{"source": "patent US20250136579A1", "about": "“SALTS AND FREE BASES OF BIFUNCTIONAL COMPOUND AND POLYMORPH FORMS THEREOF” (NURIX THERAPEUTICS, INC., priority 2023, published 2025)", "key": {"[1]": {"assay": "pKa (base) of the free base compound of Formula (I)", "format": "physicochemical", "text": "(§1) The free base compound of Formula (I) was used as a starting material. The compound of Formula (I) (MW 806.973 g/mol) is a chimeric targeting molecule that has two ligands connected by a linker."}, "[2]": {"assay": "kinetic solubility at pH 7.4", "format": "physicochemical", "conditions": "pH 7.4, aqueous buffer, kinetic from dmso stock", "text": "as §1"}, "[3]": {"assay": "estimated solubility by adding test solvent in aliquots to weighed solid, visual inspection", "format": "physicochemical", "conditions": "thermodynamic from solid, read-out: Solubility", "method": "Solubilities of the compound of Formula (I), free base, in a few solvents were estimated. The experiments were carried out by adding the test solvent in aliquots to weighed portions of solid. Whether dissolution had occurred was judged by visual inspection after addition of each solvent aliquot. Solubility numbers were calculated by dividing the weight of the sample by total amount of solvent used to dissolve the sample. The actual solubilities may be greater than the numbers calculated because of the use of solvent aliquots that were too large or because of slow dissolution rates. […] The solubility number is expressed as “greater than or equal to” if dissolution occurred on addition of the first solvent aliquot.\nSolubilities of Fumarate Salt Form A are shown in Tables 8 and 9, in selected solvents and aqueous binary mixtures.\nSolubilities of the compound of Formula (I), Fumarate Salt Form A, are shown in Tables 15 and 16, in selected solvents and aqueous binary mixtures."}, "[4]": {"assay": "dynamic vapor sorption (DVS) analysis, TA Instruments Q5000, 5 to 95% RH", "format": "physicochemical", "method": "For Fumarate Salt Form A, Dynamic vapor sorption (DVS) analysis was carried out using a TA Instruments Q5000 Dynamic Vapor Sorption analyser. The instrument was calibrated with standard weights and a sodium bromide standard for humidity. Approximately 10-25 mg of sample was loaded into a metal coated quartz pan for analysis. The sample was analysed at 25° C. with a maximum equilibration time of one hour in 10% relative humidity (RH) steps from 5 to 95% RH (adsorption cycle) and from 95 to 5% RH (desorption cycle). The movement from one step to the next occurred either after satisfying the equilibrium criterion of 0.01% weight change, or when the equilibrium criterion was not met after one hour. The percent weight change values were then calculated."}, "[5]": {"assay": "water solubility, visual solubility estimation using pipet method", "format": "physicochemical", "conditions": "thermodynamic from solid"}, "[6]": {"assay": "overnight slurry in solvent, NMR analysis of recovered solids", "format": "physicochemical"}, "[7]": {"conditions": "acid (counterion) used in salt screen; cited from earlier work"}}, "note": "Like-named read-outs stand apart in the source and are kept apart here."}
{"smiles": "CN1CCN([C@@H]2CCCN(c3cnc(C(N)=O)c(Nc4ccc(C5CCN(CC6CCN(c7ccc(C(=O)N[C@H]8CCC(=O)NC8=O)nc7)CC6)CC5)cc4)n3)C2)C1=O", "note": "[free base compound of Formula (I)]", "values": [{"measurement": "pKa", "setting": "[1]", "value": "~6.5"}, {"measurement": "solubility kinetic", "setting": "[2]", "value": 10, "unit": "µM"}, {"measurement": "solubility", "setting": "[3]; aqueous with cosolvent or surfactant or cyclodextrin, 1,4-dioxane/H2O (60/40), aw 1.0, at 60° C.", "value": 2000, "unit": "µg/mL"}, {"measurement": "solubility", "setting": "[3]; aqueous with cosolvent or surfactant or cyclodextrin, 1-pentanol/H2O (saturated) (80:20 - 2 phase system), at 60° C.", "value": "< 3000", "unit": "µg/mL"}, {"measurement": "solubility", "setting": "[3]; aqueous with cosolvent or surfactant or cyclodextrin, 2-propanol/H2O (80/20), aw 0.9, at 60° C.", "value": "< 2000", "unit": "µg/mL"}, {"measurement": "solubility", "setting": "[3]; aqueous with cosolvent or surfactant or cyclodextrin, acetone/H2O (70/30), aw 0.85, at 60° C.", "value": "< 2000", "unit": "µg/mL"}, {"measurement": "solubility", "setting": "[3]; aqueous with cosolvent or surfactant or cyclodextrin, acetonitrile/H2O (45/55), aw 0.9, at 60° C.", "value": "< 2000", "unit": "µg/mL"}, {"measurement": "solubility", "setting": "[3]; aqueous with cosolvent or surfactant or cyclodextrin, ethanol/H2O (70/30), aw 0.8, at 60° C.", "value": "< 2000", "unit": "µg/mL"}, {"measurement": "solubility", "setting": "[3]; aqueous with cosolvent or surfactant or cyclodextrin, methanol/H2O (50/50), aw 0.75, at 60° C.", "value": "< 2000", "unit": "µg/mL"}, {"measurement": "solubility", "setting": "[3]; aqueous with cosolvent or surfactant or cyclodextrin, tetrahydrofuran/H2O (80/20), aw 1, at RT", "value": 5000, "unit": "µg/mL"}, {"measurement": "solubility", "setting": "[3]; organic solvent or mixture, 1,2-dichloroethane, at 45° C.", "value": 2000, "unit": "µg/mL"}, {"measurement": "solubility", "setting": "[3]; organic solvent or mixture, 1,4-dioxane, solubility without temperature", "value": 6000, "unit": "µg/mL"}, {"measurement": "solubility", "setting": "[3]; organic solvent or mixture, 2-methyltetrahydrofuran (2-MeTHF), solubility without temperature", "value": "< 1000", "unit": "µg/mL"}, {"measurement": "solubility", "setting": "[3]; organic solvent or mixture, 2-propanol (2-PrOH), solubility without temperature", "value": "< 1000", "unit": "µg/mL"}, {"measurement": "solubility", "setting": "[3]; organic solvent or mixture, acetone, solubility without temperature", "value": "< 1000", "unit": "µg/mL"}, {"measurement": "solubility", "setting": "[3]; organic solvent or mixture, acetonitrile (ACN), solubility without temperature", "value": "< 1000", "unit": "µg/mL"}, {"measurement": "solubility", "setting": "[3]; organic solvent or mixture, anisole, at 60° C.", "value": "< 1000", "unit": "µg/mL"}, {"measurement": "solubility", "setting": "[3]; organic solvent or mixture, cyclohexane, at 60° C.", "value": "< 2000", "unit": "µg/mL"}, {"measurement": "solubility", "setting": "[3]; organic solvent or mixture, dichloromethane (DCM), solubility without temperature", "value": 17000, "unit": "µg/mL"}, {"measurement": "solubility", "setting": "[3]; organic solvent or mixture, diethyl ether (Et2O), solubility without temperature", "value": "< 1000", "unit": "µg/mL"}, {"measurement": "solubility", "setting": "[3]; organic solvent or mixture, dimethylformamide (DMF), solubility without temperature", "value": 21000, "unit": "µg/mL"}, {"measurement": "solubility", "setting": "[3]; organic solvent or mixture, dimethylsulfoxide (DMSO), solubility without temperature", "value": 9000, "unit": "µg/mL"}, {"measurement": "solubility", "setting": "[3]; organic solvent or mixture, ethanol (EtOH), solubility without temperature", "value": "< 1000", "unit": "µg/mL"}, {"measurement": "solubility", "setting": "[3]; organic solvent or mixture, ethyl acetate (EtOAc), solubility without temperature", "value": "< 1000", "unit": "µg/mL"}, {"measurement": "solubility", "setting": "[3]; organic solvent or mixture, heptane, at 60° C.", "value": "< 2000", "unit": "µg/mL"}, {"measurement": "solubility", "setting": "[3]; organic solvent or mixture, methanol (MeOH), solubility without temperature", "value": "< 1000", "unit": "µg/mL"}, {"measurement": "solubility", "setting": "[3]; organic solvent or mixture, methyl acetate (MeOAc), at 60° C.", "value": "< 1000", "unit": "µg/mL"}, {"measurement": "solubility", "setting": "[3]; organic solvent or mixture, methyl ethyl ketone (MEK), solubility without temperature", "value": "< 1000", "unit": "µg/mL"}, {"measurement": "solubility", "setting": "[3]; organic solvent or mixture, methyl tert-butyl ether (MTBE), at 60° C.", "value": "< 1000", "unit": "µg/mL"}, {"measurement": "solubility", "setting": "[3]; organic solvent or mixture, tetrahydrofuran (THF), solubility without temperature", "value": 9000, "unit": "µg/mL"}, {"measurement": "solubility", "setting": "[3]; organic solvent or mixture, toluene, at 60° C.", "value": "< 2000", "unit": "µg/mL"}, {"measurement": "solubility", "setting": "[3]; water, solubility without temperature", "value": "< 1000", "unit": "µg/mL"}, {"measurement": "DVS: weight gain up to 95% RH", "setting": "[4]; 25° C.", "value": "approximately 7%"}, {"measurement": "DVS: hygroscopicity", "setting": "[4]; 25° C., 5 to 95% RH", "value": "moderately hygroscopic"}, {"measurement": "Post-DVS XRPD", "setting": "[4]; material after sorption/desorption cycle", "value": "unchanged"}]}
{"smiles": "CN1CCN([C@@H]2CCCN(c3cnc(C(N)=O)c(Nc4ccc(C5CCN(CC6CCN(c7ccc(C(=O)N[C@H]8CCC(=O)NC8=O)nc7)CC6)CC5)cc4)n3)C2)C1=O.O=C(O)/C=C\\C(=O)O", "note": "[Maleate Salt Form A]", "values": [{"measurement": "solubility", "setting": "[5]", "value": "< 300", "unit": "µg/mL"}, {"measurement": "1H NMR, post-EtOH slurry", "setting": "[6]; slurry stirred overnight in EtOH", "value": "Consistent with a 1:1 salt"}, {"measurement": "1H NMR, post-water slurry", "setting": "[6]; slurry stirred overnight in water", "value": "Not consistent with 1:1 salt (0.4"}]}
{"smiles": "O=C(O)CNC(=O)c1ccccc1", "note": "[hippuric]", "values": [{"measurement": "pKa", "setting": "[7]", "value": 3.55}]}
{"smiles": "O=C(O)[C@H](O)[C@@H](O)[C@H](O)[C@H](O)CO", "note": "[D-gluconic]", "values": [{"measurement": "pKa", "setting": "[7]", "value": 3.76}]}
